Test results as given in patent US5439930A, “Biologically active n-acylprolydipeptides having antiamnestic, antihypoxic and anorexigenic effects” (Russian-American Institute for New Drug Development, priority 1992, dated 1995).
Where a SMILES comes first, the peptide text is derived from it. The star is where a group is joined. Isovaleryl = CC(C)CC(=O)*; Hexanoyl = CCCCCC(=O)*; PhAc = O=C(Cc1ccccc1)*; Bz = O=C(c1ccccc1)*

Tests used:
Format in all cases: in vivo
[1] = tested on: memory decline evoked by maximal electroshock (MES) in randomly bred male albino rats; assay: Passive avoidance step-through, amnesia by maximal electroshock (MES); conditions: for inhibition in vivo at 0.1 mg/kg: Rattus norvegicus, ip, 24 h, read-out: AA % (antiamnestic activity, Butler's modified formula); for inhibition in vivo at 0.1 mg/kg / Latency (sec.) Amnesia + subst. / AA % (antiamnestic activity, Butler's modified formula): 0.1 mg/kg i.p. 15 min before training; for Latency (sec.) Amnesia + subst.: MES after learning, retention 24 h later
Method: (§1) Compounds according to the present invention, including the compounds described in Examples 1-11, were checked for their ability to prevent memory decline evoked by maximal electroshock (MES) or scopolamine in the passive avoidance step-through paradigm (equipment of Laffaette Co., USA). The experiments described herein (Examples 12, 13, 15, and 19) were carried out using randomly bred male albino rats of a weight of approximately 180-220 g. […] Amnesia was produced by transcorneal maximal electroshock immediately after learning or scopolamine (1 mg/kg, subcutaneously) administration 30 min. before learning. The retention was tested 24 hours later by the measurement of latency of the entering of the dark compartment.
(§2) The degree of antiamnestic activity was estimated according to Buttler's modified formula: [formula]
(§3) The higher the magnitude of this indicator the more is the antiamnestic activity.

[2] = tested on: memory decline evoked by scopolamine in randomly bred male albino rats; assay: Passive avoidance step-through, amnesia by scopolamine
Method: as §1, §2, §3

[3] = tested on: phenazepam withdrawn male albino rats; assay: Threshold of aggressive behavior during phenazepam withdrawal; conditions: immediately after the last administration of phenazepam (2 mg/kg i.p. daily for 57 days)
Method: The influence of Compound I on withdrawal syndrome caused by the interruption of chronic administration of benzodiazepine tranquilizer phenazepam (T. A. Voronina et al., In Fenazepam; A. V. Bogatsky, Ed.; Naukova dumka Publishers: Kiev, 1982; pp. 67-169) was studied in experiments on male albino rats weighing 190-200 g at the beginning and 300-350 g at the end of the experiment.
Phenazepam (2 mg/kg intraperitoneally) or saline (control group of rats) were given once daily for 57 days. The withdrawal syndrome occurred 24-72 hours after the last injection. The withdrawal syndrome in rats consisted in "anxiogenic-like" state aggressiveness and accelerated development of kindled seizures caused by pentylentetrazol. Compound I was administered to the withdrawn rats in doses of 0.5 mg/kg intraperitoneally 15 minutes prior to testing.
The threshold of the aggressive behavior was determined in the experiment on the rats (R. Tedeshi et al., J. Pharmacol. Exp. Ther., 125, 28-34 (1959)). The paired rats were placed on the electrified floor; the strength of the current, which provokes the fighting, was registered.

[4] = Level of active dose for the described nootropic activities; conditions: above-described nootropic activities
Method: The compounds of the present invention were assessed for their ability to prevent memory impairment induced by maximal electroshock, or scopolamine administration. Unlike N-acylpyrrolidine compounds of the type described by Tanaka et al., supra, the compounds of the present invention are not believed to inhibit prolyl endopeptidase activity. […] The Compound I prevents mental decline, induced by frontal lobectomy (Example 15), prenatal alcoholization or prenatal hypoxia (Example 16) and aging (Example 17).
In contrast to this, substances in accordance with the present invention exert their effects in a dose between about 0.1-0.5 mg/kg.

[5] = tested on: undertraining of the passive avoidance reflex, rats; assay: Passive avoidance with undertraining, different regimes of administration; conditions: 200 mg/kg i.p.
[6] = 0.1 mg/kg 15 min before learning, scopolamine 1 mg/kg s.c.
[7] = 0.1 mg/kg 15 min before learning, scopolamine 1 mg/kg s.c. 30 min before trial
[8] = 200 mg/kg, scopolamine 1 mg/kg s.c.

With `CCCCCC(=O)N1CCC[C@H]1C(=O)NCC(=O)OCC` [XXI, N-caproyl-L-prolylglycine ethyl ester] (Hexanoyl-Pro-Gly-OEt) the inhibition in vivo at 0.1 mg/kg ([1]; MES amnesia) was 20.2%.
For `CCOC(=O)CCNC(=O)[C@@H]1CCCN1C(=O)Cc1ccccc1` [III, N-phenacetyl-L-prolyl-β-alanine ethyl ester], the “Latency (sec.) Amnesia + subst.” value [1] was 56 s, the “AA % (antiamnestic activity, Butler's modified formula)” value ([1]; MES amnesia) was 29% and the “Aa (antiamnestic activity)” value [2, 6] was 23.7. The “Latency (sec.) Scopolamine + substance” value [2, 7] was 78.6 s.
In the case of `O=C(O)CNC(=O)[C@@H]1CCCN1C(=O)Cc1ccccc1` [XVIII, N-phenylacetyl-L-prolylglycine] (PhAc-Pro-Gly-OH), the inhibition in vivo at 0.1 mg/kg ([1]; MES amnesia) is reported as 9.8%.
With `CCOC(=O)C[C@H](NC(=O)[C@@H]1CCCN1C(=O)Cc1ccccc1)C(=O)OCC` [V, N-phenylacetyl-L-prolyl-L-aspartic acid diethyl ester] (PhAc-Pro-Asp(OEt)-OEt) the inhibition in vivo at 0.1 mg/kg ([1]; MES amnesia) was 29.5%, the “Aa (antiamnestic activity)” value [2, 6] was -10 and the “Latency (sec.) Scopolamine + substance” value [2, 7] was 48.1 s.
In the case of `NC(=O)CCNC(=O)[C@@H]1CCCN1C(=O)Cc1ccccc1` [IV, N-phenylacetyl-L-prolyl-β-alanine amide], the inhibition in vivo at 0.1 mg/kg ([1]; MES amnesia) is reported as 52%, the “Aa (antiamnestic activity)” value [2, 6] is reported as 52.1 and the “Latency (sec.) Scopolamine + substance” value [2, 7] is reported as 94.9 s.
In the case of `NC(=O)C[C@H](NC(=O)[C@@H]1CCCN1C(=O)Cc1ccccc1)C(N)=O` [VI, N-phenylacetyl-L-prolyl-L-asparagine amide] (PhAc-Pro-Asn-NH2), the inhibition in vivo at 0.1 mg/kg ([1]; MES amnesia) is reported as 26%, the “Aa (antiamnestic activity)” value [2, 6] is reported as -4.3 and the “Latency (sec.) Scopolamine + substance” value [2, 7] is reported as 46.3 s.
`CC(C)C[C@H](NC(=O)[C@@H]1CCCN1C(=O)Cc1ccccc1)C(N)=O` [XVII, N-phenylacetyl-L-prolyl-L-leucine amide] (PhAc-Pro-Leu-NH2) showed an inhibition in vivo at 0.1 mg/kg ([1]; MES amnesia) of 7.9%.
With `NC(=O)CCNC(=O)[C@@H]1CCCN1C(=O)c1ccccc1` [XII, N-benzoyl-L-prolyl-β-alanine amide] the inhibition in vivo at 0.1 mg/kg ([1]; MES amnesia) was 15.2%.
Work on `CCOC(=O)CC[C@H](NC(=O)[C@@H]1CCCN1C(=O)Cc1ccccc1)C(=O)OCC` [XVI, N-phenylacetyl-L-prolyl-L-glutamic acid diethyl ester] (PhAc-Pro-Glu(OEt)-OEt) yielded an inhibition in vivo at 0.1 mg/kg ([1]; MES amnesia) of 58.3%.
Work on `CCOC(=O)[C@@H](NC(=O)[C@@H]1CCCN1C(=O)c1ccccc1)C(C)C` [X, N-benzoyl-L-prolyl-L-valine ethyl ester] (Bz-Pro-Val-OEt) yielded an inhibition in vivo at 0.1 mg/kg ([1]; MES amnesia) of 38%.
For `O=C1CN=C(c2ccccc2Cl)c2cc(Br)ccc2N1` [Phenazepam, reference compound], the “Aggression Threshold (mA)” value [3] was 2.16 ± 0.2 mA.
`CCOC(=O)CCNC(=O)[C@@H]1CCCN1C(=O)c1ccccc1` [XI, N-benzoyl-L-prolyl-β-alanine ethyl ester] gave an inhibition in vivo at 0.1 mg/kg ([1]; MES amnesia) of 21.9%.
For `CCOC(=O)CNC(=O)[C@@H]1CCCN1C(=O)CC(C)C` [VIII, N-isovaleryl-L-prolylglycine ethyl ester] (Isovaleryl-Pro-Gly-OEt), the inhibition in vivo at 0.1 mg/kg ([1]; MES amnesia) was 28%.
Work on `NC(=O)CNC(=O)[C@@H]1CCCN1C(=O)c1ccccc1` [XIII, N-benzoyl-L-prolylglycine amide] (Bz-Pro-Gly-NH2) yielded an inhibition in vivo at 0.1 mg/kg ([1]; MES amnesia) of -17.6%.
With `CCOC(=O)CNC(=O)[C@@H]1CCCN1C(=O)c1ccccc1` [VII, N-benzoyl-L-prolylglycine ethyl ester] (Bz-Pro-Gly-OEt) the inhibition in vivo at 0.1 mg/kg ([1]; MES amnesia) was 37%.
`CN(C)C(=O)CNC(=O)[C@@H]1CCCN1C(=O)Cc1ccccc1` [XV, N-phenylacetyl-L-prolylglycine dimethylamide] (PhAc-Pro-Gly-NMe2) gave an inhibition in vivo at 0.1 mg/kg ([1]; MES amnesia) of 23%.
Compound `CNC(=O)CNC(=O)[C@@H]1CCCN1C(=O)Cc1ccccc1` [XIV, N-phenylacetyl-L-prolylglycine N-methylamide] (PhAc-Pro-Gly-NHMe) has an inhibition in vivo at 0.1 mg/kg ([1]; MES amnesia) of -7.6%.
`CCOC(=O)[C@@H](NC(=O)[C@@H]1CCCN1C(=O)Cc1ccccc1)C(C)C` [IX, N-phenylacetyl-L-prolyl-L-valine ethyl ester] (PhAc-Pro-Val-OEt) gave an inhibition in vivo at 0.1 mg/kg ([1]; MES amnesia) of 0.0001%.
`CCOC(=O)CNC(=O)[C@@H]1CCCN1CCCCc1ccccc1` [XXIII, N-phenylbutyl-L-prolyl-glycine ethylester] gave an inhibition in vivo at 0.1 mg/kg ([1]; MES amnesia) of 12.6%.
For `NC(=O)CNC(=O)[C@@H]1CCCN1C(=O)Cc1ccccc1` [II, N-phenacetyl-L-prolylglycine amide] (PhAc-Pro-Gly-NH2), the “Latency (sec.) Amnesia + subst.” value [1] was 56 s, the “AA % (antiamnestic activity, Butler's modified formula)” value ([1]; MES amnesia) was 27% and the “Aa (antiamnestic activity)” value [2, 6] was -9.0. The “Latency (sec.) Scopolamine + substance” value [2, 7] was 45.6 s.
In the case of `COC(=O)CCCNC(=O)[C@@H]1CCCN1C(=O)Cc1ccccc1` [XIX, N-phenylacetyl-L-prolyl-GABA methylester], the “Latency (sec.) Amnesia + subst.” value [1] is reported as 95.8 s and the “AA % (antiamnestic activity, Butler's modified formula)” value ([1]; MES amnesia) is reported as 45.4%.
`CCOC(=O)[C@H](C)NC(=O)[C@@H]1CCCN1C(=O)Cc1ccccc1` [XX, N-phenylacetyl-L-prolyl-L-alanine ethyl ester] (PhAc-Pro-Ala-OEt) gave an inhibition in vivo at 0.1 mg/kg ([1]; MES amnesia) of 10.8%.
With `NC(=O)CN1CCCC1=O` [Piracetam, N-carbamido-methyl-pyrrolidone-2, reference compound] the “Level of active dose” value [4] was 200 to 800 mg/kg, the “AA % (antiamnestic activity)” value ([1]; 200 mg/kg, MES amnesia) was 30.5% and the “Mnestic activity (Ma), administration 15 min. before retrieval” value [5] was -15%. For the same compound, the “Mnestic activity (Ma), administration 15 min. before trial” value [5] was 20.0%, the “Mnestic activity (Ma), administration immediately after trial” value [5] was 1.0% and the “Aa (antiamnestic activity)” value [2, 8] was 39.3. The “Latency (sec.) Scopolamine + substance” value [2, 8] was 64.2 s.
